# Measurements published in patent US10934297B2, “5-heteroaryl substituted indazole-3-carboxamides and preparation and use thereof” (Samumed, LLC, priority 2018, dated 2021).
# Assays:
# GSK3β kinase = GSK3β kinase (Homo sapiens (Human), UniProt P49841); experiment: GSK3β kinase assay (Ser/Thr 09 peptide Z-lyte FRET); type: biochemical; conditions: read-out: EC50 (method: IC50)
# In short: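 Non-radioactive Z-lyte FRET read-out, kinase activity expressed as coumarin/fluorescein emission ratio. Compounds incubated with the reaction mixture one hour at room temperature in duplicate, then development buffer added for another hour. IC50 from non-linear regression of dose-response curves.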
# [1] = tested on: Wnt activity (Sp5-Luc reporter in SW480 cells); experiment: Screening assay for Wnt activity: Sp5-Luc reporter gene assay in SW480 colon carcinoma cells; type: cell-based, human; conditions: Homo sapiens, 36 to 48 hours
# In short: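 SW480 colon carcinoma cells stably carrying a lentiviral luciferase reporter driven by an Sp5 promoter with eight TCF/LEF sites, plated at 4,000 cells/well in DMEM with 1% FBS. Compound exposure for 36–48 h at 37 °C, then luminescence read. Signals normalized to DMSO; EC50 from four-parameter nonlinear fit.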
# IL-6 = IL-6 inhibition in LPS-stimulated human peripheral blood mononuclear cells (HTRF); type: cell-based; conditions: Homo sapiens, PBMC; for EC50: huPBMCs, LPS 50 ng/mL, 22 hours, IL-6 HTRF; for inhibition at 10 µM: read-out: percent inhibition at 10 μM
# In short: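 Fresh human PBMCs at 1×10e6 cells/mL in RPMI/1% FBS were stimulated with 50 ng/mL E. coli 0111:B4 LPS added 2 h after compound, then incubated 22 h at 37° C. Secreted IL-6 was measured by HTRF (665/620 nm ratio) after 3 h at room temperature. EC50 was taken from activity normalized to DMSO-treated cells.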
# [2] = tested on: SW480 colon carcinoma cells; experiment: Cell viability assay (CellTiter-Glo) in SW480 colon carcinoma cells; type: cell-based, human; conditions: Homo sapiens, 96 h, four days
# In short: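 SW480 cells stably carrying an Sp5-promoter luciferase reporter were plated at 2,000 cells/well in DMEM with 1% FBS and treated with compound for four days at 37 °C. Viability was read as ATP luminescence with CellTiter-Glo after about 12 min; DMSO-treated wells served as controls.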
# DYRK1A kinase = DYRK1A kinase (Homo sapiens (Human), UniProt Q13627); experiment: DYRK1A kinase assay (Ser/Thr 18 peptide Z-lyte FRET); type: biochemical; conditions: read-out: EC50 (method: IC50)
# In short: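 This Z-lyte FRET assay reads the coumarin/fluorescein emission ratio. Compounds were incubated with the reaction mixture for 1 h at room temperature, followed by development reagent for a further 1 h at room temperature, in duplicate.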
# [3] = tested on: primary human fibroblasts derived from IPF patients (LL29 cells); experiment: Inhibition of the fibrotic process: αSMA staining in TGF-β1 treated LL29 fibroblasts; type: cell-based; conditions: Homo sapiens, Fibroblast, 96 h; LL29 cells, TGF-β1 20 ng/mL, 4 days, % αSMA positive cells
# In short: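 LL29 fibroblasts from IPF patients, in F12 medium with 1% FBS, treated with TGF-β1 plus compound; TGF-β1 with DMSO as positive control, DMSO alone as negative control. After 4 days' incubation, SYTOX green nucleic acid stain added at 1 μM final, 30 min at room temperature.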
# GSK3β kinase, sequence (P49841 whole entry): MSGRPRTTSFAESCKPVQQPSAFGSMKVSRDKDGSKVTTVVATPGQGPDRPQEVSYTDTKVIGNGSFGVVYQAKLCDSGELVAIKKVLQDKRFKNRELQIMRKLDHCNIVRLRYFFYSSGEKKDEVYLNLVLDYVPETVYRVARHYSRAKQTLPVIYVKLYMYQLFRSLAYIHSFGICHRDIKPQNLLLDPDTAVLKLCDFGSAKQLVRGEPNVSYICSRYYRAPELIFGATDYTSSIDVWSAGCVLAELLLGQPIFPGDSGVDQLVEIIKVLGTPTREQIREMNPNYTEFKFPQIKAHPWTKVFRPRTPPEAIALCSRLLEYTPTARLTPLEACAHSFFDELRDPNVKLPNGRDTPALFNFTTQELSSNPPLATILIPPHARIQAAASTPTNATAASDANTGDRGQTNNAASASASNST
IC50 (GSK3β kinase),EC50 [1],EC50 (IL-6),EC50 [2],IC50 (DYRK1A kinase),Compound,EC50 [3],inhibition at 10 µM (IL-6)
0.26 µM,0.239 µM,5.42 µM,0.354 µM,0.023 µM,"O=C(Nc1ccc(F)cc1)c1n[nH]c2ccc(-c3cnn(C4CCNCC4)c3)cc12 [Compound 48, N-(4-Fluorophenyl)-5-(1-(piperidin-4-yl)-1H-pyrazol-4-yl)-1H-indazole-3-carboxamide]",0.449 µM,
0.187 µM,0.256 µM,3.73 µM,0.208 µM,0.015 µM,"O=C(Nc1ccc(F)cc1)c1n[nH]c2cc(F)c(-c3cnn(C4CCNCC4)c3)cc12 [Compound 49, 6-Fluoro-N-(4-fluorophenyl)-5-(1-(piperidin-4-yl)-1H-pyrazol-4-yl)-1H-indazole-3-carboxamide]",1.01 µM,
0.476 µM,1.19 µM,6.05 µM,0.648 µM,0.034 µM,"O=C(Nc1ccc(Cl)cc1)c1n[nH]c2cc(F)c(-c3cnn(C4CCNCC4)c3)cc12 [Compound 50, N-(4-Chlorophenyl)-6-fluoro-5-(1-(piperidin-4-yl)-1H-pyrazol-4-yl)-1H-indazole-3-carboxamide]",1.11 µM,
0.558 µM,0.56 µM,2.56 µM,0.305 µM,0.016 µM,"CN1CCC(n2cc(-c3cc4c(C(=O)Nc5ccc(F)cc5)n[nH]c4cc3F)cn2)CC1 [Compound 51, 6-Fluoro-N-(4-fluorophenyl)-5-(1-(1-methylpiperidin-4-yl)-1H-pyrazol-4-yl)-1H-indazole-3-carboxamide]",0.816 µM,
2.08 µM,4.38 µM,> 10 µM,> 10 µM,0.244 µM,"O=C(Nc1ccc(OC(F)F)cc1)c1n[nH]c2ccc(-c3cnn(C4CNC4)c3)cc12 [Compound 54, 5-(1-(Azetidin-3-yl)-1H-pyrazol-4-yl)-N-(4-(difluoromethoxy)phenyl)-1H-indazole-3-carboxamide]",2.92 µM,9.7%
1.23 µM,0.428 µM,3.85 µM,1.34 µM,0.037 µM,"O=C(Nc1ccc(OC(F)F)cc1)c1n[nH]c2ccc(-c3cnn(C4CCNCC4)c3)cc12 [Compound 55, N-(4-(Difluoromethoxy)phenyl)-5-(1-(piperidin-4-yl)-1H-pyrazol-4-yl)-1H-indazole-3-carboxamide]",0.236 µM,
0.33 µM,0.376 µM,2.15 µM,0.201 µM,0.027 µM,"O=C(Nc1ccc(OC(F)F)cc1)c1n[nH]c2cc(F)c(-c3cnn(C4CCNCC4)c3)cc12 [Compound 56, N-(4-(Difluoromethoxy)phenyl)-6-fluoro-5-(1-(piperidin-4-yl)-1H-pyrazol-4-yl)-1H-indazole-3-carboxamide]",1.53 µM,
1.29 µM,0.555 µM,2.59 µM,0.327 µM,0.028 µM,"CN1CCC(n2cc(-c3cc4c(C(=O)Nc5ccc(OC(F)F)cc5)n[nH]c4cc3F)cn2)CC1 [Compound 59, N-(4-(Difluoromethoxy)phenyl)-6-fluoro-5-(1-(1-methylpiperidin-4-yl)-1H-pyrazol-4-yl)-1H-indazole-3-carboxamide]",2.54 µM,
> 10 µM,3.85 µM,8.98 µM,3.73 µM,1.5 µM,"O=C(Nc1ccc(OC(F)F)cc1)c1n[nH]c2ccc(-c3cnn(C4CCN(CCF)CC4)c3)cc12 [Compound 60, N-(4-(Difluoromethoxy)phenyl)-5-(1-(1-(2-fluoroethyl)piperidin-4-yl)-1H-pyrazol-4-yl)-1H-indazole-3-carboxamide]",1.28 µM,
2.32 µM,9.44 µM,> 10 µM,0.768 µM,0.767 µM,"O=C(Nc1ccc(OC(F)F)cc1)c1n[nH]c2ccc(-c3cnn(CC4CCNCC4)c3)cc12 [Compound 63, N-(4-(Difluoromethoxy)phenyl)-5-(1-(piperidin-4-ylmethyl)-1H-pyrazol-4-yl)-1H-indazole-3-carboxamide]",2.03 µM,6.2%
0.044 µM,0.805 µM,3.18 µM,1.1 µM,0.004 µM,"CN1CCC(c2ccc(NC(=O)c3n[nH]c4cc(F)c(-c5cnn(C)c5)cc34)cc2)CC1 [Compound 65, 6-Fluoro-5-(1-methyl-1H-pyrazol-4-yl)-N-(4-(1-methylpiperidin-4-yl)phenyl)-1H-indazole-3-carboxamide]",0.62 µM,
0.065 µM,0.953 µM,1.28 µM,0.759 µM,0.002 µM,"CN1CCN(c2ccc(NC(=O)c3n[nH]c4cc(F)c(-c5cnn(C)c5)cc34)cc2)CC1 [Compound 66, 6-Fluoro-5-(1-methyl-1H-pyrazol-4-yl)-N-(4-(4-methylpiperazin-1-yl)phenyl)-1H-indazole-3-carboxamide]",0.65 µM,
0.006 µM,0.264 µM,> 10 µM,0.36 µM,0.001 µM,"Cn1cc(-c2ccc3[nH]nc(C(=O)Nc4ccc(CN5CCCC5)cc4)c3c2)cn1 [Compound 68, 5-(1-Methyl-1H-pyrazol-4-yl)-N-(4-(pyrrolidin-1-ylmethyl)phenyl)-1H-indazole-3-carboxamide]",0.074 µM,
0.02 µM,0.308 µM,1.32 µM,0.191 µM,0.002 µM,"Cn1cc(-c2cc3c(C(=O)Nc4ccc(CN5CCCC5)cc4)n[nH]c3cc2F)cn1 [Compound 69, 6-Fluoro-5-(1-methyl-1H-pyrazol-4-yl)-N-(4-(pyrrolidin-1-ylmethyl)phenyl)-1H-indazole-3-carboxamide]",0.328 µM,
0.025 µM,0.512 µM,1.38 µM,0.518 µM,0.005 µM,"CCn1cc(-c2ccc3[nH]nc(C(=O)Nc4ccc(CN5CCCC5)cc4)c3c2)cn1 [Compound 70, 5-(1-Ethyl-1H-pyrazol-4-yl)-N-(4-(pyrrolidin-1-ylmethyl)phenyl)-1H-indazole-3-carboxamide]",0.126 µM,
0.169 µM,1.49 µM,4.8 µM,1.1 µM,0.025 µM,"CC(C)n1cc(-c2ccc3[nH]nc(C(=O)Nc4ccc(CN5CCCC5)cc4)c3c2)cn1 [Compound 71, 5-(1-Isopropyl-1H-pyrazol-4-yl)-N-(4-(pyrrolidin-1-ylmethyl)phenyl)-1H-indazole-3-carboxamide]",0.322 µM,
0.04 µM,0.545 µM,1.2 µM,0.228 µM,0.006 µM,"O=C(Nc1ccc(CN2CCCC2)cc1)c1n[nH]c2ccc(-c3cnn(C4CC4)c3)cc12 [Compound 72, 5-(1-Cyclopropyl-1H-pyrazol-4-yl)-N-(4-(pyrrolidin-1-ylmethyl)phenyl)-1H-indazole-3-carboxamide]",0.242 µM,
0.068 µM,1.55 µM,1.16 µM,6.97 µM,0.003 µM,"Cn1cc(-c2ccc3[nH]nc(C(=O)Nc4ccc(CN5CCCC5)cc4F)c3c2)cn1 [Compound 73, N-(2-Fluoro-4-(pyrrolidin-1-ylmethyl)phenyl)-5-(1-methyl-1H-pyrazol-4-yl)-1H-indazole-3-carboxamide]",0.799 µM,
0.878 µM,2.17 µM,> 10 µM,> 10 µM,0.305 µM,"Cn1cc(-c2ccc3[nH]nc(C(=O)Nc4ccc(CN5CCCC5)cc4O)c3c2)cn1 [Compound 74, N-(2-Hydroxy-4-(pyrrolidin-1-ylmethyl)phenyl)-5-(1-methyl-1H-pyrazol-4-yl)-1H-indazole-3-carboxamide]",0.035 µM,22.1%
0.039 µM,0.542 µM,1.16 µM,1.1 µM,0.003 µM,"Cn1cc(-c2cc3c(C(=O)Nc4ccc(CN5CCC(F)CC5)cc4)n[nH]c3cc2F)cn1 [Compound 75, 6-Fluoro-N-(4-((4-fluoropiperidin-1-yl)methyl)phenyl)-5-(1-methyl-1H-pyrazol-4-yl)-1H-indazole-3-carboxamide]",0.159 µM,
